In US20260103438A1, “PROBES AND METHODS TO IDENTIFY LIGANDABLE FATTY ACYLATION SITES FOR THERAPEUTIC TARGET IDENTIFICATION” (The General Hospital Corporation, priority 2022, published 2026):

Experiments:
TEAD2 = TEAD2 (Homo sapiens, UniProt Q15562); assay: Labeling of TEAD2 by covalent probes in vitro (western blot); conditions: probe 1 μM, 30 mins, western blot (FIG. 1)
RRAS2 = target: T1, RRAS2 (Homo sapiens, UniProt P62070); assay: Auto-palmitoylation of recombinant RRAS2 with Alkyne Palmitoyl-CoA (western blot); conditions: indicated concentrations, 30 mins (FIG. 6C)
T1 sequence (P62070 1-204): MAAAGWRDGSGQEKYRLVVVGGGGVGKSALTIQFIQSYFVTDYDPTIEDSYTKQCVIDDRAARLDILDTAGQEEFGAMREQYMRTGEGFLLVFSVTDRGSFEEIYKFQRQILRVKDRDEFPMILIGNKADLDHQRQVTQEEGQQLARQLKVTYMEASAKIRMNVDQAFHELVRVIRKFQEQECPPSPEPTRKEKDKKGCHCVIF

IDH1WT = IDH1WT (Homo sapiens, UniProt O75874); assay: Auto-palmitoylation of recombinant IDH1 WT with Alkyne Palmitoyl-CoA (western blot); conditions: indicated concentrations, 30 mins (FIG. 6D)
Chain of IDH1WT (O75874 whole entry): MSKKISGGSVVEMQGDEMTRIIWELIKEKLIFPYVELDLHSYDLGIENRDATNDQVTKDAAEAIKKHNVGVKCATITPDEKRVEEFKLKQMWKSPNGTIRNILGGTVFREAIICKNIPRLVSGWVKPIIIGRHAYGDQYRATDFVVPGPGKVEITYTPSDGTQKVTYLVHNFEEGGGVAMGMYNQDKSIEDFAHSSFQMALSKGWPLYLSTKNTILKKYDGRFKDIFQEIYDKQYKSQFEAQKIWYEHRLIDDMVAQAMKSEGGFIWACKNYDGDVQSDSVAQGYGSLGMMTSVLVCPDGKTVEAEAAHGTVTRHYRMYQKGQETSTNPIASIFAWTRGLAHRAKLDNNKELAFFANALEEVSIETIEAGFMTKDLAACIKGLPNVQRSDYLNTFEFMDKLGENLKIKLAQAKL

PCNA = PCNA (Homo sapiens, UniProt P12004); assay: Auto-palmitoylation of recombinant PCNA with Alkyne Palmitoyl-CoA (western blot); conditions: indicated concentrations, 30 mins (FIG. 6A)
Chain of PCNA (P12004 whole entry): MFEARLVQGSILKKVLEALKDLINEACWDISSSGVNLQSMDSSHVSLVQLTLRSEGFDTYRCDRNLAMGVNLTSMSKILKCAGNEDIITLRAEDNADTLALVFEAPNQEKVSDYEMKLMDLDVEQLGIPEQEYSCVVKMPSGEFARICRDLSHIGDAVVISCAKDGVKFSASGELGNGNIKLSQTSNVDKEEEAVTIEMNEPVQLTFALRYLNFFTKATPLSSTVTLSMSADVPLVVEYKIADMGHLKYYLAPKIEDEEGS

RAP1A = target: T2, RAP1A (Homo sapiens, UniProt P62834); assay: Auto-palmitoylation of recombinant RAP1A with Alkyne Palmitoyl-CoA (western blot); conditions: indicated concentrations, 30 mins (FIG. 6B)
T2 sequence (P62834 1-184): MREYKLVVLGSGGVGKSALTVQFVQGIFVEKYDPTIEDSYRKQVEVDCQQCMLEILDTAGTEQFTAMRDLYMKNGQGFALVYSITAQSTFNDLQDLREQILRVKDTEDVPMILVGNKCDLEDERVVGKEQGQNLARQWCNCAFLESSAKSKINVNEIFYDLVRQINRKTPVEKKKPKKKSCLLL

HEK293A cells = assay: MS-based proteomics of proteins enriched by covalent probes; type: cell-based; conditions: for number of proteins collectively targeted by Compound A21, Compound B1 and Compound B4: HEK293A cells, Venn diagram (FIG. 4); for number of proteins enriched by the covalent probes also identified by SLC-ABPP: overlap with SLC-ABPP database (FIG. 5)
Method: For in-cell labeling, HEK293A cells with or without overexpression of proteins of interest were starved in DMEM medium with 10% dialyzed fetal bovine serum (DFBS) for 1 h and labeled using the covalent probes (10 μM) overnight. The cells were then washed and harvested using cold DPBS (14190250, Life Technologies). The cell pellets were isolated by centrifugation (500×g, 10 min) and lysed by TEA lysis buffer (50 mM TEA-HCl, pH 7.4, 150 mM NaCl, 1% Triton X-100, 0.2% SDS, 1×Protease inhibitor-EDTA free cocktail (05892791001, Roche), phosphatase inhibitor cocktail (P0044, Sigma-Aldrich)) on ice for 30 mins. The protein concentration was determined using Bio-Rad assay and adjusted to 1 mg/mL. For lysate labeling, HEK293A cells were grown in DMEM with 10% FBS. When confluence reached ˜90%, the cells were washed and harvested by cold DPBS. The cell pellets were isolated by centrifugation (500×g, 5 min) and resuspended with TEA lysis buffer (50 mM TEA-HCl, pH 7.4, 150 mM NaCl, 1% Triton X-100, IXProtease inhibitor-EDTA free cocktail, phosphatase inhibitor cocktail), incubated on ice for 15 mins, and then sonicated (7 s, 30% duty cycle, output setting=3). After centrifugation (17,000×g, 10 min), the supernatant is transferred to a clean tube. The protein concentration is determined using Bio-Rad assay and adjusted to 1 mg/mL. The lysate was then labeled with DMSO or probes (10 μM) at room temperature for 1 h with rotation. SDS was added to the lysate to a final concentration of 0.2% and the resultant solution retained for further use.
To 1.5 mg of proteomes from cell labeling or lysate labeling as described above were added 150 μL fresh prepared “click” mixture of TBTA (75 μL, 2 mM in 1:4 DMSO: t-BuOH), CuSO4 (30 μL, 50 mM in H2O), TCEP (30 μL, 50 mM in H2O) and Biotin-Azide (15 μL, 10 mM in DMSO). The samples were rotated at room temperature for 1 h. To these samples were then added MeOH (6 mL), CHCl3 (1.5 mL) and H2O (4.5 mL), and the resultant solution was mixed well. After centrifugation (17,000×g, 10 min), the aqueous layers were carefully aspirated leaving a protein disc between the organic and aqueous phases. The protein disc was washed with 6 mL of methanol and isolated by centrifugation (17,000×g, 10 min). The remaining protein pellet was collected and redissolved with 700 μL of 2% SDS in 0.1% PBST. The solution was diluted with 4.9 mL of 0.1% PBST and added 0.1% PBST-washed streptavidin agarose beads (150 μL, 1:1, sigma). After rotation at room temperature for 2 h, the beads were then pelleted by centrifugation (500×g, 5 min) and washed with 0.2% SDS in PBS (3×1 mL). The beads were transferred to a Protein Low-Binding tube and the immobilized proteins were digested by addition of urea (200 μL, 2.0 M in DPBS), CaCl2) (2.0 μL, 100 mM in H2O) and sequence grade porcine trypsin (2 μg; Promega). After digesting overnight at 37° C., the supernatant was transferred to a clean Protein Low-Binding, acidified with HCO2H (formic acid, 16 μL) and stored at −20° C. until the analyzed by LC-MS/MS.

Myc-TEAD1 C344S mutant = target: T3, Myc-TEAD1 C344S mutant (Homo sapiens, UniProt P28347, C359S); assay: Labeling of transfected Myc-TEAD1 wild type or C344S mutant in HEK293A cells (streptavidin pulldown, western blot); type: cell-based; conditions: 10 μM overnight, C344S vs wild type (FIG. 3)
T3 construct: expressed in transfected cells; host or cells: HEK293A
T3 sequence (P28347 16-426 C359S limits assumed): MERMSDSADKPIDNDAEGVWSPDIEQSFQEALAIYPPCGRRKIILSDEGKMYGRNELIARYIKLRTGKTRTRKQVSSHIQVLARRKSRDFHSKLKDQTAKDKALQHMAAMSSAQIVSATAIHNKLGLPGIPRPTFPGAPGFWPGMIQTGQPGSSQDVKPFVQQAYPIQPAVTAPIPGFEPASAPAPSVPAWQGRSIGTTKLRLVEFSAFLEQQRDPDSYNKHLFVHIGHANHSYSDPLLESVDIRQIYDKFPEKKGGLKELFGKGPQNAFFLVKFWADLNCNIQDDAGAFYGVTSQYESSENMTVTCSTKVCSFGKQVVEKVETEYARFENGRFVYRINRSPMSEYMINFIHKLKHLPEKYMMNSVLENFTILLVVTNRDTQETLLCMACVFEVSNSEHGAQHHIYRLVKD
Method: HEK293A cells was seed in 6 cm dishes overnight and transfected with plasmids using PEI reagent (1 μg/μL). Briefly, proteins of interest and PEI were diluted in serum-free DMEM medium in two tubes (DNA:PEI ratio=1:2). After standing still for 5 mins, the solutions were mixed well and allowed to stand unperturbed for an additional 20 mins. The mixture was then added to dishes directly.
For in-cell labeling, HEK293A cells with or without overexpression of proteins of interest were starved in DMEM medium with 10% dialyzed fetal bovine serum (DFBS) for 1 h and labeled using the covalent probes (10 μM) overnight. The cells were then washed and harvested using cold DPBS (14190250, Life Technologies). […] The protein concentration was determined using Bio-Rad assay and adjusted to 1 mg/mL. […] The protein concentration is determined using Bio-Rad assay and adjusted to 1 mg/mL. […]
100 μL of labeled proteome was treated with 10 μL of freshly prepared “click” mixture containing 1 mM TBTA, 10 mM TCEP, 10 mM CuSO4, 1 mM Biotin-Azide and incubated for 1 h at room temperature. […] The bound proteins were eluted with a buffer containing 10 mM EDTA (pH 8.2) and 95% formamide and analyzed with SDS-PAGE. […]

Chain of TEAD2 (Q15562 whole entry, species assumed): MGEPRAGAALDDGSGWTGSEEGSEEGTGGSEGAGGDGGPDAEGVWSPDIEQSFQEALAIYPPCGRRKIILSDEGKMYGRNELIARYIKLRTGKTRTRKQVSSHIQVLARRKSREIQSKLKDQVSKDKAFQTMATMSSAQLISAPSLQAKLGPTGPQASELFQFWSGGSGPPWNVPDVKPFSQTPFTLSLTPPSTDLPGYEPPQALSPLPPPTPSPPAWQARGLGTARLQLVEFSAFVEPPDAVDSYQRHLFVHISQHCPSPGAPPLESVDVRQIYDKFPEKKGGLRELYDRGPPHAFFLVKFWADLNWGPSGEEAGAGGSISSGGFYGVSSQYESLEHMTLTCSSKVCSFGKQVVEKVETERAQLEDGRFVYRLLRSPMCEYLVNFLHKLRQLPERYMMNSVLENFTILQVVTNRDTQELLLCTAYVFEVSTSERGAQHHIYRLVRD

Row | labeling efficiency of TEAD2 (TEAD2) | SMILES | number of proteins collectively targeted by Compound A21, Compound B1 and Compound B4 (HEK293A cells) | number of proteins enriched by the covalent probes also identified by SLC-ABPP (HEK293A cells) [proteins] | other results
1 | strong labeling efficiency | C#CCCCCCCCCCCCCNS(=O)(=O)C=C [Compound A64, N-(tetradec-13-yn-1-yl)ethenesulfonamide] | – | – | –
2 | – | C#CCCCCCCCCCCCCCC(=O)SCCNC(=O)CCNC(=O)[C@H](O)C(C)(C)COP(=O)(O)OP(=O)(O)OC[C@H]1O[C@@H](n2cnc3c(N)ncnc32)[C@H](O)[C@@H]1OP(=O)(O)O [Alkyne Palmitoyl-CoA] | – | – | auto-palmitoylation (labeling) of RRAS2 (RRAS2): auto-palmitoylated in a dose dependent manner; auto-palmitoylation (labeling) of IDH1 WT (IDH1WT): auto-palmitoylated in a dose dependent manner; auto-palmitoylation (labeling) of PCNA (PCNA): auto-palmitoylated in a dose dependent manner; auto-palmitoylation (labeling) of RAP1A (RAP1A): auto-palmitoylated in a dose dependent manner
3 | strong labeling efficiency | C#CCCCCCCCCCCCCCCNC(=O)CI [Compound A21, N-(hexadec-15-yn-1-yl)-2-iodoacetamide] | One hundred and sixty | 191 | –
4 | strong labeling efficiency | C#CCCCCCCCCCCCCCCNS(=O)(=O)C=C [Compound A26, N-(hexadec-15-yn-1-yl)ethenesulfonamide] | – | – | –
5 | strong labeling efficiency | C#CCCCCCCCCCCCCNC(=O)CI [Compound A63, 2-iodo-N-(tetradec-13-yn-1-yl)acetamide] | – | – | –
6 | strong labeling efficiency | C#CCCCCCCCCCCCCCCNC(=O)CBr [Compound B1, 2-bromo-N-(hexadec-15-yn-1-yl)acetamide] | One hundred and sixty | 191 | –
7 | strong labeling efficiency | C#CCCCCCCCCCCCCNC(=O)CBr [Compound B4, 2-bromo-N-(tetradec-13-yn-1-yl)acetamide] | One hundred and sixty | 191 | effect of mutating cysteine 344 (C344S) on labeling of Myc-TEAD1 by the probe (Myc-TEAD1 C344S mutant): inhibited labeling
